Measurements: patent US4376768A, “Benzothiazine derivative” (priority 1980, dated 1983)
Like-named read-outs stand apart in the source and are kept apart here.

What was measured:
[1] = in vivo; details: for selectivity ratio: rat, in vivo, po
Method: (§1) Anti-inflammatory activity was tested as follows: Male rats of the Wistar strain were used in groups of 7. A test compound was suspended in a 0.2% carboxymethyl cellulose solution and orally administered in a dose of 0.5 ml/100 g of body weight. […] Three hours after injection of carrageenin, each rat was sacrificed by ether. The feet of both hind legs were amputated at the ankle joint and weighed to detect the difference in weight between both feet. Then, the ability of the test compound to suppress the carrageenin-induced edema was evaluated by comparing the foot weight difference of the test group with that of a control group (consisting of rats to which the solvent alone was administered). Specifically, the rate of suppression of the edema was calculated according to the following equation: [formula]
The incidence of gastric disorders in rats was tested as follows: Eight-weeks-old male rats of the Wistar strain were used in groups of 5 to 7. After they were fasted for 18 hours or more, a test compound was administered orally. Six hours later, each rat was sacrificed by decapitation. The stomach was removed, filled with 10 ml of physiological saline, and then fixed in 5% formalin. After about 10 minutes, the stomach was incised through the greater curvature and the presence or absence of gastric disorders (in particular, erosion) was examined by visual observation. According to Litchfield-Wilcoxon's method, the dose causing erosion to occur in 50% of the test animals, UD50, was calculated on an all-or-none basis.

[2] = test system: carrageenin-induced edema; experiment: Duration of anti-inflammatory activity (carrageenin edema at varied premedication times); assay type: in vivo, male rats of the Wistar strain; details: for Rate of suppression of edema in rats premedicated at various times: Table 3, dose = ED50
From the text: The premedication time was defined as the time interval between the administration of a test compound and the injection of carrageenin.

[3] = Safety margin LD50/ED50; details: for Safety margin, LD50/ED50: Table 1
Method: as §1
A test compound was suspended in a 0.2% carboxymethyl cellulose solution and orally administered in a dose of 0.1 ml/10 g of body weight. […] The LD50 value was calculated on the basis of the death rates on the final day.

[4] = Incidence of gastric disorders (erosion) in rats; assay type: in vivo, male rats of the Wistar strain; details: rat, in vivo, po
From the text: (§2) Six hours later, each rat was sacrificed by decapitation.

[5] = test system: mice; experiment: in vivo; assay type: in vivo; details: Table 5; for Number of deaths / total number of test animals: p.o.; for LD50: observed for 7 days
[6] = in vivo; assay type: in vivo; details: mouse, in vivo; Table 1; mice, oral, 7 days; read-out: Acute toxicity, LD50
[7] = test system: carrageenin-induced edema; experiment: Anti-inflammatory activity: suppression of carrageenin-induced edema in the rat hind foot; assay type: in vivo, male rats of the Wistar strain
[8] = prior art, in words; cited from earlier work
[9] = test system: gastric disorders (erosion); experiment: Incidence of gastric disorders (erosion) in rats; assay type: in vivo, male rats of the Wistar strain; details: Table 1; rats, oral
From the text: as §2

[10] = in words, among the compounds of Table 1

Row | Compound | selectivity ratio [1] | Rate of suppression of edema in rats premedicated at various times ([2]; premedication 1 hr.) | Rate of suppression of edema in rats premedicated at various times ([2]; premedication 3 hr.) | Rate of suppression of edema in rats premedicated at various times ([2]; premedication 6 hr.) | Rate of suppression of edema in rats premedicated at various times ([2]; premedication 24 hr.) | Rate of suppression of edema in rats premedicated at various times ([2]; premedication 48 hr.) | Safety margin compared with indomethacin and diclofenac ([3]; in words) | LD50 [5] | further results
1 | Cc1cccc(NC(=O)C2C(=O)c3ccccc3S(=O)(=O)N2C)n1 (centres unmarked) [6-Methyl-2-pyridyl compound, N-(6-methyl-2-pyridyl)-3,4-dihydro-2-methyl-4-oxo-2H-1,2-benzothiazine-3-carboxamide 1,1-dioxide] | 1.1 |  |  |  |  |  |  |  | 
2 | CN1C(C(=O)Nc2cccc(Cl)n2)C(=O)c2ccccc2S1(=O)=O (centres unmarked) [Compound of formula (1), N-(6-chloro-2-pyridyl)-3,4-dihydro-2-methyl-4-oxo-2H-1,2-benzothiazine-3-carboxamide 1,1-dioxide] | 30.8 | 55.7% | 54.9% | 48.3% | 22.6% | 9.8% | superior |  | Rate of suppression of edema in rats premedicated at various times ([2]; premedication 12 hr.): 40.3%; Duration of anti-inflammatory activity ([2]; in words): excellent; selectivity ratio ([3]; in vivo, po): 615; Degree of safety ([3]; in words): very high degree of safety; Safety margin [3, 10]: remarkably high; TD50 at 6 h [4]: 200 mg/kg; Therapeutic index compared with indomethacin and diclofenac ([1]; in words): superior; Therapeutic index [1, 10]: remarkably high; Number of deaths / total number of test animals ([5]; 1,000 mg/kg): 0/5; Number of deaths / total number of test animals ([5]; 3,000 mg/kg): 2/5; Number of deaths / total number of test animals ([5]; 5,000 mg/kg): 3/5; LD50 at 168 h [6]: 4000 mg/kg; inhibition in vivo at 2 mg/kg ([7]; Rattus norvegicus, po, 3 h, Table 2, 2.0 mg/kg, p.o., read-out: Rate of suppression of edema): 19.4%; inhibition in vivo at 4 mg/kg ([7]; Rattus norvegicus, po, 3 h, Table 2, 4.0 mg/kg, p.o., read-out: Rate of suppression of edema): 43.6%; inhibition in vivo at 8 mg/kg ([7]; Rattus norvegicus, po, 3 h, Table 2, 8.0 mg/kg, p.o., read-out: Rate of suppression of edema): 50.6%; inhibition in vivo at 16 mg/kg ([7]; Rattus norvegicus, po, 3 h, Table 2, 16.0 mg/kg, p.o., read-out: Rate of suppression of edema): 71%; ED50 ([7]; Rattus norvegicus, po, read-out: Dose producing 50% suppression, ED50, Table 2, carrageenin 1 h after compound, read 3 h later): 6.5 mg/kg; ED50 ([7]; Table 1, rat carrageenin edema, oral, read-out: Anti-inflammatory activity, ED50): 6.5 mg/kg; Anti-inflammatory activity ([7]; in words): potent and long-lasting
3 | O=C(O)Cc1ccccc1Nc1c(Cl)cccc1Cl [Diclofenac] |  | 45.9% | 24.7% | 17.6% | -1.2% |  |  |  | 
4 | COc1ccc2c(c1)c(CC(=O)O)c(C)n2C(=O)c1ccc(Cl)cc1 [Indomethacin] | 1.2 | 49.4% | 57.6% | 29.4% | -3.5% |  |  |  | Rate of suppression of edema in rats premedicated at various times ([2]; premedication 12 hr.): 18.8%; Safety margin, LD50/ED50 [3]: 3.7
5 | Cc1cc(NC(=O)C2C(=O)c3ccccc3S(=O)(=O)N2C)no1 (centres unmarked) [Isoxicam, 3,4-dihydro-2-methyl-N-(5-methyl-3-isoxazolyl)-4-oxo-2H-1,2-benzothiazine-3-carboxamide 1,1-dioxide] |  |  |  |  |  | 1.1% | superior | 5,000 mg/kg, p.o. | Anti-inflammatory activity compared with Piroxicam and Sudoxicam [8]: lower
6 | CN1C(C(=O)Nc2ccccn2)C(=O)c2ccccc2S1(=O)=O (centres unmarked) [Piroxicam, 3,4-dihydro-2-methyl-4-oxo-N-(2-pyridyl)-2H-1,2-benzothiazine-3-carboxamide 1,1-dioxide] |  |  |  | 40.0% |  | 1.7% | superior | 490 mg/kg, p.o. | Anti-inflammatory activity [8]: potent and long-lasting
7 | CN1C(C(=O)Nc2nccs2)C(=O)c2ccccc2S1(=O)=O (centres unmarked) [Sudoxicam, 3,4-dihydro-2-methyl-4-oxo-N-(2-thiazolyl)-2H-1,2-benzothiazine-3-carboxamide 1,1-dioxide] | 2.3 |  |  |  |  | -2.4% | superior | 500 mg/kg, p.o. | Safety margin, LD50/ED50 [3]: 98; Gastric disorders, UD50 [9]: 11.8 mg/kg; Therapeutic index compared with indomethacin and diclofenac ([1]; in words): superior; Anti-inflammatory activity [8]: potent and long-lasting; Degree of toxicity and incidence of gastric disorders compared with indomethacin and diclofenac [8]: not appreciably different
